In one test the target is BRD4-BD12 (1-477) (Homo sapiens (Human), UniProt O60885). Put plainly: Alphascreen binding assay BRD4-BD12. Conditions: BRD4(1 2) H4; read-out: Biochemical activity (IC50 μM) BRD4(1 2) H4. The procedure: Binding of compounds of formula (I) with bromodomain 2, 3 4 was assessed using Alphascreen binding assay. The inhibition of the interaction between bromodomain and its acetylated target protein (Filippakopoulos P et al. 2012) was measured quantitatively using recombinant BRD proteins, an acetylated Histone 4 peptide and AlphaScreen™ technology. In absence of inhibition the BRD protein bound to AlphaScreen™ nickel chelate acceptor beads can interact with the acetylated Histone 4 peptide which is immobilized by the AlphaScreen™ Streptavidin coated beads. This interaction brings donor and acceptor beads in proximity. The close proximity allows the singlet oxygen produced by laser excitation of the donor beads to reach the acceptor beads and generate a luminescence signal.
Recombinant human bromodomains containing the N-terminal bromodomain (BRD2-BD1 (71-194), BRD3-BD1 (24-144) and BRD4-BD1 (44-164)) or dual bromodomains (BRD4-BD12 (1-477), BRD4-BD12 (1-472)) were prepared and purified as described in protein expression and purification session. The peptide is human Histone H41-21K5AcK8AcK12AcK16Ac-Biotin (Anaspec CA, USA).
Protocol for BRD2, BRD3 and BRD4 assay: All components are prepared in buffer composed of 50 mM HEPES pH 7.5, 100 mM NaCl, 0.01% bovine serum albumin (“BSA”), 0.01% Triton X-100, 2 mM dithiothreitol (“DTT”). 7 μL of Bromodomain protein and 7 μL of peptide are added to wells containing 1 μL of various concentrations of test compounds of formula (I) or DMSO vehicle in an Alphaplate (PerkinElmer GA, USA) and incubated for 1 hour at room temperature. 4 μL donor and acceptor bead mixture is then added with final concentrations of 7.5 μg/ml. 30 minutes after bead addition, Alpha signal is read on the Envision spectrometer (λEx 680 nm, λEm 520-620 nm). Final concentrations of bromodomain proteins and peptide are as shown below.
All data was normalized to the mean of 16 high and 16 low control wells on each plate. A four parameter curve fit of the following formula was then applied: Y=a+(b−a)/(1+(x/c)^d) Where ‘a’ is the minimum, ‘b’ is the maximum, ‘c’ is the pIC50 and ‘d’ is the Hill slope. Protein Expression and Purification
Recombinant human bromodomains containing the N-terminal bromodomain (BRD2-BD1 (71-194), BRD3-BD1 (24-144) and BRD4-BD1 (44-164)) or dual bromodomains (BRD4-BD12 (1-477), BRD4-BD12 (1-472)) were expressed in E. coli cells (in a modified pET vector) with an N-terminal six-His tag and purified using a combination of both IMAC (Ni-affinity) and size exclusion chromatography steps.
Recombinant BRD proteins were expressed using the E. coli strain BL21-CodonPlus (DE3) (Agilent Technologies CA, USA). Cells were grown in Terrific Broth (TB) media to an OD600 of 1.2 at 37° C. at which temperature was reduced to 25° C., protein was induced with 1.0 mM ispropyl-β-D-thiogalactopyranoside (“IPTG”) for 12-18 hours and harvested by centrifugation at 8000×g for 20 minutes. Cells were re-suspended in 0.1M K2PO4 pH 8.0, 250 mM NaCl, 10% Glycerol, 0.75% NP-40, 25 mM Imidazole, 5 mM beta-mercaptoethanol (“BME”) with 0.2 mg/ml Lysosyme, 2.0 mM phenylmethanesulfonyl fluoride (“PMSF”), 25 μg/ml DNAse I, incubated on ice for 30 minutes and lyzed with a cell disruptor (MicroFluidics MA, USA). The lysate was clarified by centrifugation at 20,000×g for 2 hours. The protein was captured with Ni-NTA resin (Life Technologies, USA). Contaminating proteins were washed off with 25 mM Tris-HCl pH 8.3, 250 mM NaCl, 12% Glycerol and 50 mM Imidazole. Following 3× wash steps, protein was eluted step wise using a 50 mM HEPES pH 7.5, 500 mM NaCl and 400 mM Imidazole. The protein was further purified using Gel Filtration column 26/600 Superdex 200 (GE Biosciences NJ, USA) in 50 mM HEPES pH 7.5, 250 mM NaCl. The protein was aliquoted and flash-frozen in liquid Nitrogen.
Background: In Alpha technology, singlet oxygen from a donor bead excites a nearby acceptor bead.

Another test relates to MV-4-11 cells. Put plainly: Oncology cell growth assay MV-4-11 (CellTiter Glo). In kind it is cell-based. Conditions: Homo sapiens, MV4-11, 72 h, read-out: Cell activity (IC50 μM) MV-4-11 3d-Growth. The method, boiled down: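 Growth read by CellTiter Glo luminescence after 72 h compound treatment of MLL-AF4-bearing MV-4-11 cells (3000/well). Titration: 8 points, 1:3 steps, maximum 10 μM, 0.2% DMSO final. Data normalized to DMSO wells, four-parameter fit gives pIC50.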
Background: In ATP-based viability assays light output follows the ATP content of the culture.

Read-outs that look alike come from different tables or passages of the source. Where only a bound is given, the exact number is not on record here.

Broadly, the IC50 is the point on the concentration scale where inhibition reaches its midpoint. As for `Cc1noc(C)c1-c1cnc2ccn(C(c3ccccc3)c3ccccn3)c2c1` (stereo not drawn) [P-0913, 3,5-dimethyl-4-[1-[phenyl(2-pyridyl)methyl]pyrrolo[3,2-b]pyridin-6-yl]isoxazole], the IC50 on BRD4-BD12 (1-477) is under 1 µM; in the test on MV-4-11 cells (MV-4-11, 3d growth) it was under 1 µM.

`COC(=O)c1ccc(-c2cn(CC3(C)CCCCC3)c3cc(-c4c(C)noc4C)cnc23)cc1` [P-0914, methyl 4-[6-(3,5-dimethylisoxazol-4-yl)-1-[(1-methylcyclohexyl)methyl]pyrrolo [3,2-b]pyridin-3-yl]benzoate]: the 50% inhibitory concentration (IC50) at BRD4-BD12 (1-477) was under 1 µM; in the test with MV-4-11 cells (MV-4-11, 3d growth), 1 to 10 µM.

Consider `COC(=O)c1ccc(-c2cn(Cc3cccc(C)n3)c3cc(-c4c(C)noc4C)cnc23)cc1` [P-0915, methyl 4-[6-(3,5-dimethylisoxazol-4-yl)-1-[(6-methyl-2-pyridyl)methyl]pyrrolo[3,2-b]pyridin-3-yl]benzoate], for which the IC50 at BRD4-BD12 (1-477) was under 1 µM; in the test on MV-4-11 cells (MV-4-11, 3d growth), under 1 µM.

For `Cc1cccc(Cn2cc(-c3ccc(C(=O)O)cc3)c3ncc(-c4c(C)noc4C)cc32)n1` [P-0916, 4-[6-(3,5-dimethylisoxazol-4-yl)-1-[(6-methyl-2-pyridyl)methyl]pyrrolo[3,2-b]pyridin-3-yl]benzoic acid], the concentration for half-maximal inhibition (IC50) on BRD4-BD12 (1-477) was under 1 µM; in the test with MV-4-11 cells (MV-4-11, 3d growth), under 1 µM.

In the case of `Cc1noc(C)c1-c1cnc2c(-c3ccc(C(=O)O)cc3)cn(Cc3ccc(F)cn3)c2c1` [P-0917, 4-[6-(3,5-dimethylisoxazol-4-yl)-1-[(5-fluoro-2-pyridyl)methyl]pyrrolo[3,2-b]pyridin-3-yl]benzoic acid], the IC50 at BRD4-BD12 (1-477) is under 1 µM; with MV-4-11 cells (MV-4-11, 3d growth), under 1 µM.

Turning to `COC(=O)c1ccc(-c2cn(Cc3ccc(F)cn3)c3cc(-c4c(C)noc4C)cnc23)cc1` [P-0918, methyl 4-[6-(3,5-dimethylisoxazol-4-yl)-1-[(5-fluoro-2-pyridyl)methyl]pyrrolo[3,2-b]pyridin-3-yl]benzoate], the IC50 at BRD4-BD12 (1-477) is under 1 µM; with MV-4-11 cells (MV-4-11, 3d growth), under 1 µM.

Turning to `COC(=O)c1ccc(-c2cn(Cc3ccccc3)c3cc(-c4c(C)noc4C)cnc23)cc1` [P-0919, methyl 4-[1-benzyl-6-(3,5-dimethylisoxazol-4-yl)pyrrolo[3,2-b]pyridin-3-yl]benzoate], the IC50 was under 1 µM at BRD4-BD12 (1-477) and under 1 µM in the test with MV-4-11 cells (MV-4-11, 3d growth).

`Cc1cccc(Cn2cc(I)c3ncc(-c4c(C)noc4C)cc32)n1` [P-0920, 4-[3-iodo-1-[(6-methyl-2-pyridyl)methyl]pyrrolo[3,2-b]pyridin-6-yl]-3,5-dimethyl-isoxazole]: the 50% inhibitory concentration (IC50) is under 1 µM at BRD4-BD12 (1-477) and under 1 µM in the test with MV-4-11 cells (MV-4-11, 3d growth).

Regarding `COC(=O)c1ccc(-c2cn(Cc3ccccc3C#N)c3cc(-c4c(C)noc4C)cnc23)cc1` [P-0922, methyl 4-[1-[(2-cyanophenyl)methyl]-6-(3,5-dimethylisoxazol-4-yl)pyrrolo[3,2-b]pyridin-3-yl]benzoate], the IC50 was under 1 µM on BRD4-BD12 (1-477) and under 1 µM with MV-4-11 cells (MV-4-11, 3d growth).

Consider `Cc1noc(C)c1-c1cnc2c(-c3ccc(C(=O)O)cc3)cn(Cc3ccccc3C#N)c2c1` [P-0923, 4-[1-[(2-cyanophenyl)methyl]-6-(3,5-dimethylisoxazol-4-yl)pyrrolo[3,2-b]pyridin-3-yl]benzoic acid], for which the IC50 was under 1 µM at BRD4-BD12 (1-477) and under 1 µM in the test on MV-4-11 cells (MV-4-11, 3d growth).

In the case of `Cc1noc(C)c1-c1cnc2c(I)cn(Cc3ccccc3F)c2c1` [P-0924, 4-[1-[(2-fluorophenyl)methyl]-3-iodo-pyrrolo[3,2-b]pyridin-6-yl]-3,5-dimethyl-isoxazole], the IC50 on BRD4-BD12 (1-477) is under 1 µM; in the test on MV-4-11 cells (MV-4-11, 3d growth) it was under 1 µM.

Regarding `COC(=O)c1ccc(-c2cn(Cc3ccccc3F)c3cc(-c4c(C)noc4C)cnc23)cc1` [P-0925, methyl 4-[6-(3,5-dimethylisoxazol-4-yl)-1-[(2-fluorophenyl)methyl]pyrrolo[3,2-b]pyridin-3-yl]benzoate], the 50% inhibitory concentration (IC50) on BRD4-BD12 (1-477) is under 1 µM; in the test on MV-4-11 cells (MV-4-11, 3d growth) it was under 1 µM.

Consider `Cc1noc(C)c1-c1cnc2c(-c3ccc(C(=O)O)cc3)cn(Cc3ccccc3F)c2c1` [P-0926, 4-[6-(3,5-dimethylisoxazol-4-yl)-1-[(2-fluorophenyl)methyl]pyrrolo[3,2-b]pyridin-3-yl]benzoic acid], for which the IC50 is under 1 µM at BRD4-BD12 (1-477) and under 1 µM with MV-4-11 cells (MV-4-11, 3d growth).

Turning to `CCOP(=O)(OCC)c1ccc(-c2cn(C(C)c3ccccc3)c3cc(-c4c(C)noc4C)cnc23)cc1` (stereo not drawn) [P-0927, 4-[3-(4-diethoxyphosphorylphenyl)-1-(1-phenylethyl)pyrrolo[3,2-b]pyridin-6-yl]-3,5-dimethyl-isoxazole], the IC50 at BRD4-BD12 (1-477) and in the test on MV-4-11 cells was under 1 µM in each case.

For the molecule `Cc1noc(C)c1-c1cnc2c(-c3ccc(P(=O)(O)O)cc3)cn(C(C)c3ccccc3)c2c1` (stereo not drawn) [P-0928, [4-[6-(3,5-dimethylisoxazol-4-yl)-1-(1-phenylethyl)pyrrolo[3,2-b]pyridin-3-yl]phenyl]phosphonic acid], the IC50 was under 1 µM on BRD4-BD12 (1-477) and 1 to 10 µM in the test on MV-4-11 cells (MV-4-11, 3d growth).

Turning to `COc1cccc(Cn2cc(I)c3ncc(-c4c(C)noc4C)cc32)n1` [P-0929, 4-[3-iodo-1-[(6-methoxy-2-pyridyl)methyl]pyrrolo[3,2-b]pyridin-6-yl]-3,5-dimethyl-isoxazole], the IC50 was under 1 µM on BRD4-BD12 (1-477) and under 1 µM with MV-4-11 cells (MV-4-11, 3d growth).

On to `COC(=O)c1ccc(-c2cn(Cc3cccc(OC)n3)c3cc(-c4c(C)noc4C)cnc23)cc1` [P-0930, methyl 4-[6-(3,5-dimethylisoxazol-4-yl)-1-[(6-methoxy-2-pyridyl)methyl]pyrrolo[3,2-b]pyridin-3-yl]benzoate], for which the half-inhibitory concentration (IC50) is under 1 µM on BRD4-BD12 (1-477) and 1 to 10 µM with MV-4-11 cells (MV-4-11, 3d growth).

Consider `COc1cccc(Cn2cc(-c3ccc(C(=O)O)cc3)c3ncc(-c4c(C)noc4C)cc32)n1` [P-0931, 4-[6-(3,5-dimethylisoxazol-4-yl)-1-[(6-methoxy-2-pyridyl)methyl]pyrrolo[3,2-b]pyridin-3-yl]benzoic acid], for which the IC50 on BRD4-BD12 (1-477) was under 1 µM; with MV-4-11 cells (MV-4-11, 3d growth), under 1 µM.

For the molecule `COc1ccccc1Cn1cc(I)c2ncc(-c3c(C)noc3C)cc21` [P-0932, 4-[3-iodo-1-[(2-methoxyphenyl)methyl]pyrrolo[3,2-b]pyridin-6-yl]-3,5-dimethyl-isoxazole], the half-maximal inhibitory concentration (IC50) was under 1 µM at BRD4-BD12 (1-477) and under 1 µM with MV-4-11 cells (MV-4-11, 3d growth).

Turning to `COC(=O)c1ccc(-c2cn(Cc3ccccc3OC)c3cc(-c4c(C)noc4C)cnc23)cc1` [P-0933, methyl 4-[6-(3,5-dimethylisoxazol-4-yl)-1-[(2-methoxyphenyl)methyl]pyrrolo[3,2-b]pyridin-3-yl]benzoate], the IC50 at BRD4-BD12 (1-477) was under 1 µM; with MV-4-11 cells (MV-4-11, 3d growth) it was 1 to 10 µM.

For the molecule `COc1ccccc1Cn1cc(-c2ccc(C(=O)O)cc2)c2ncc(-c3c(C)noc3C)cc21` [P-0934, 4-[6-(3,5-dimethylisoxazol-4-yl)-1-[(2-methoxyphenyl)methyl]pyrrolo[3,2-b]pyridin-3-yl]benzoic acid], the IC50 is under 1 µM at BRD4-BD12 (1-477) and under 1 µM in the test with MV-4-11 cells (MV-4-11, 3d growth).

The record behind these values is patent publication US10519177B2, “Heterocyclic compounds and uses thereof” (Plexxikon Inc., priority 2013, dated 2019).
